Measurements: ChEMBL document CHEMBL1150194, “Two new brominated tyrosine derivatives from the sponge Druinella (= Psammaplysilla) purpurea” (J Nat Prod, 1991)
The source made the active and inactive calls. The rule behind the calls is not given here.

Legend:
Staphylococcus aureus = assay: Antimicrobial activity against Staphylococcus aureus at 100 ug/disk; type: functional, organism-based
Bacillus subtilis = assay: Antimicrobial activity against Bacillus subtilis at 100 ug/disk; type: functional, organism-based

Row | Compound | Activity (Staphylococcus aureus) | Activity (Bacillus subtilis)
1 | COc1c(Br)cc(C/C(=N\O)C(=O)NCCCOc2ccc(CCN)cc2Br)cc1Br | Active | Active
2 | COC1=C(Br)[C@H](O)[C@@]2(C=C1Br)CC(C(=O)NCCCOc1ccc(CCN)cc1Br)=NO2 | Active | Active
